Laboratory results reported in patent US8163728B2, “Pyrazoles” (Hoffmann-La Roche Inc., priority 2009, dated 2012).

What follows are compounds tested against T1, GABA A α5 (Homo sapiens, UniProt P18507+P31644) (assay: [3H]flumazenil competition binding, human GABA A α5β3γ2 receptors in HEK293 cell membranes). Settings: human receptor α5β3γ2 transiently transfected in HEK293; 0.5 nM [3H]flumazenil; 1 hour at 4° C.; means of two determinations; read-out: hKi GABA A α5.
T1 construct: expressed in transfected cells; host or cells: HEK293 cells, transiently transfected; membranes prepared from cell pellets
Protocol: The affinity of compounds at GABA A receptor subtypes was measured by competition for [3H]flumazenil (85 Ci/mmol; Roche) binding to HEK293 cells expressing rat (stably transfected) or human (transiently transfected) receptors of composition α1β3γ2, α2β3γ2, α3β3γ2 and α5β3γ2.
Cell pellets were suspended in Krebs-tris buffer (4.8 mM KCl, 1.2 mM CaCl2, 1.2 mM MgCl2, 120 mM NaCl, 15 mM Tris; pH 7.5; binding assay buffer), homogenized by polytron for ca. 20 sec on ice and centrifuged for 60 min at 4° C. (50000 g; Sorvall, rotor: SM24=20000 rpm). The cell pellets were re-suspended in Krebs-tris buffer and homogenized by polytron for ca. 15 sec on ice. Protein was measured (Bradford method, Bio-Rad) and aliquots of 1 mL were prepared and stored at −80° C.
Assays were incubated to equilibrium for 1 hour at 4° C. and harvested onto GF/C uni-filters (Packard) by filtration using a Packard harvester and washing with ice-cold wash buffer (50 mM Tris; pH 7.5). After drying, filter-retained radioactivity was detected by liquid scintillation counting. Ki values were calculated using Excel-Fit (Microsoft) and are the means of two determinations.
Compound “5-{(E)-2-[3-(4-Fluoro-phenyl)-5-methyl-isoxazol-4-yl]vinyl}-2H-pyrazole-3-carboxylic acid (2-hydroxy-1-methyl-ethyl)-amide [Example 136]” has a Ki of 1 nM.
For `Cc1onc(-c2ccccc2)c1COc1cc(C(=O)NC2CCOC2)[nH]n1` (racemic) [Example 4, Rac-5-(5-Methyl-3-phenyl-isoxazol-4-ylmethoxy)-2H-pyrazole-3-carboxylic acid (tetra-hydro-furan-3-yl)-amide], the Ki was 6.6 nM.
`Cc1onc(-c2ccc(F)cn2)c1COc1cc(C(=O)NC2CCOC2)[nH]n1` (racemic) [Example 18, Rac-5-[3-(5-Fluoro-pyridin-2-yl)-5-methyl-isoxazol-4-ylmethoxy]-2H-pyrazole-3-carboxylic acid (tetrahydro-furan-3-yl)-amide] gave a Ki of 1.2 nM.
Compound `CCCCc1noc(C)c1COc1cc(C(=O)NC2CCOC2)[nH]n1` (racemic) [Example 28, Rac-5-(3-Butyl-5-methyl-isoxazol-4-ylmethoxy)-2H-pyrazole-3-carboxylic acid (tetrahydrofuran-3-yl)-amide] has a Ki of 5.4 nM.
`CCCCc1noc(C)c1COc1cc(C(=O)NC2CCOC(C)(C)C2)[nH]n1` (racemic) [Example 37, Rac-5-(3-Butyl-5-methyl-isoxazol-4-ylmethoxy)-2H-pyrazole-3-carboxylic acid (2,2-dimethyl-tetrahydro-pyran-4-yl)-amide] gave a Ki of 22 nM.
For `Cc1onc(-c2ccccc2)c1COc1cc(C(=O)NC2CCOC2)n(C)n1` (racemic) [Example 43, Rac-2-Methyl-5-(5-methyl-3-phenyl-isoxazol-4-ylmethoxy)-2H-pyrazole-3-carboxylic acid (tetrahydro-furan-3-yl)-amide], the Ki was 9.7 nM.
Work on `Cc1onc(-c2ccc(F)cc2)c1COc1cc(C(=O)NCC(O)C(F)(F)F)n(C)n1` (racemic) [Example 59, Rac-5-[3-(4-Fluoro-phenyl)-5-methyl-isoxazol-4-ylmethoxy]-2-methyl-2H-pyrazole-3-carboxylic acid (3,3,3-trifluoro-2-hydroxy-propyl)-amide] yielded a Ki of 1.8 nM.
In the case of `Cc1onc(-c2ccc(F)cc2)c1COc1cc(C(=O)NC2CCOC2)n(C)n1` (racemic) [Example 72, Rac-5-[3-(4-Fluoro-phenyl)-5-methyl-isoxazol-4-ylmethoxy]-2-methyl-2H-pyrazole-3-carboxylic acid (tetrahydro-furan-3-yl)-amide], the Ki is reported as 1.5 nM.
Compound `Cc1onc(-c2ccc(F)cn2)c1COc1cc(C(=O)NC2CCOC2)n(C)n1` (racemic) [Example 81, Rac-5-[3-(5-fluoro-pyridin-2-yl)-5-methyl-isoxazol-4-ylmethoxy]-2-methyl-2H-pyrazole-3-carboxylic acid (tetrahydro-furan-3-yl)-amide] has a Ki of 5.9 nM.
Work on `CCCCc1noc(C)c1COc1cc(C(=O)NC(C)CO)n(C)n1` (racemic) [Example 87, Rac-5-(3-Butyl-5-methyl-isoxazol-4-ylmethoxy)-2-methyl-2H-pyrazole-3-carboxylic acid (2-hydroxy-1-methyl-ethyl)-amide] yielded a Ki of 44.7 nM.
In the case of `CCCCc1noc(C)c1COc1cc(C(=O)NC2CCOC2)n(C)n1` (racemic) [Example 89, Rac-5-(3-Butyl-5-methyl-isoxazol-4-ylmethoxy)-2-methyl-2H-pyrazole-3-carboxylic acid (tetrahydro-furan-3-yl)-amide], the Ki is reported as 20.3 nM.
`Cn1nc(OCc2c(-c3ccc(F)cc3)noc2CO)cc1C(=O)NC1CCOC1` (racemic) [Example 97, Rac-5-[3-(4-fluoro-phenyl)-5-hydroxymethyl-isoxazol-4-ylmethoxy]-2-methyl-2H-pyrazole-3-carboxylic acid (tetrahydro-furan-3-yl)-amide] gave a Ki of 4.5 nM.
Work on `Cn1nc(OCc2c(-c3ccc(F)cc3)noc2CO)cc1C(=O)NC1(C)COC1` (racemic) [Example 98, Rac-5-[3-(4-fluoro-phenyl)-5-hydroxymethyl-isoxazol-4-ylmethoxy]-2-methyl-2H-pyrazole-3-carboxylic acid (3-methyl-oxetan-3-yl)-amide] yielded a Ki of 4.9 nM.
`Cn1nc(OCc2c(-c3ccc(Cl)cc3)noc2CO)cc1C(=O)NC1CCOC1` (racemic) [Example 110, Rac-5-[3-(4-Chloro-phenyl)-5-hydroxymethyl-isoxazol-4-ylmethoxy]-2-methyl-2H-pyrazole-3-carboxylic acid (tetrahydro-furan-3-yl)-amide] gave a Ki of 2.7 nM.
For `CCCCc1noc(C)c1COc1cc(C(=O)N[C@@H](C)CO)[nH]n1` (single isomer, unassigned) [Example 30], the Ki was 25.2 nM.
In the case of `Cc1onc(-c2ccc(F)cc2)c1COc1cc(C(=O)N[C@@H](C)CO)n(C)n1` (single isomer, unassigned) [Example 75, (+)-5-[3-(4-Fluoro-phenyl)-5-methyl-isoxazol-4-ylmethoxy]-2-methyl-2H-pyrazole-3-carboxylic acid ((R)-2-hydroxy-1-methyl-ethyl)-amide or 5-[3-(4-fluoro-phenyl)-5-methyl-isoxazol-4-ylmethoxy]-2-methyl-2H-pyrazole-3-carboxylic acid ((S)-2-hydroxy-1-methyl-ethyl)-amide or enantiomer], the Ki is reported as 5.7 nM.
For `Cc1onc(-c2ccc(F)cc2)c1COc1cc(C(=O)N[C@H](C)CO)n(C)n1` (single isomer, unassigned) [Example 76, (−)-5-[3-(4-Fluoro-phenyl)-5-methyl-isoxazol-4-ylmethoxy]-2-methyl-2H-pyrazole-3-carboxylic acid ((S)-2-hydroxy-1-methyl-ethyl)-amide or 5-[3-(4-fluoro-phenyl)-5-methyl-isoxazol-4-ylmethoxy]-2-methyl-2H-pyrazole-3-carboxylic acid ((R)-2-hydroxy-1-methyl-ethyl)-amide or enantiomer], the Ki was 10.8 nM.
In the case of `CCCCc1noc(C)c1COc1cc(C(=O)NC2CCOC2)[nH]n1` (single isomer, unassigned; (+)) [Example 35, (+)-(R or S)-3-((3-Butyl-5-methylisoxazol-4-yl)methoxy)-N-(tetrahydrofuran-3-yl)-1H-pyrazole-5-carboxamide], the Ki is reported as 6 nM.
`Cc1onc(-c2ccc(F)cc2)c1COc1cc(C(=O)NCC(O)C(F)(F)F)n(C)n1` (single isomer, unassigned; (+)) [Example 67, (+)-5-[3-(4-Fluoro-phenyl)-5-methyl-isoxazol-4-ylmethoxy]-2-methyl-2H-pyrazole-3-carboxylic acid ((S or R)-3,3,3-trifluoro-2-hydroxy-propyl)-amide or enantiomer] showed a Ki of 2.4 nM.
In the case of `CCC(CO)NC(=O)c1cc(OCc2c(-c3ccc(F)cc3)noc2C)nn1C` (single isomer, unassigned; (+)) [Example 70, (+)-5-[3-(4-Fluoro-phenyl)-5-methyl-isoxazol-4-ylmethoxy]-2-methyl-2H-pyrazole-3-carboxylic acid ((S or R)-1-hydroxymethyl-propyl)-amide], the Ki is reported as 16.7 nM.
With `Cc1onc(-c2ccc(F)cc2)c1COc1cc(C(=O)N[C@@H]2CCCC2O)n(C)n1` (single isomer, unassigned; (+)) [Example 74] the Ki was 2 nM.
`CCCCc1noc(C)c1COc1cc(C(=O)NC2CCOC2)[nH]n1` (single isomer, unassigned; (-)) [Example 34, (−)-(S or R)-3-((3-Butyl-5-methylisoxazol-4-yl)methoxy)-N-(tetrahydrofuran-3-yl)-1H-pyrazole-5-carboxamide] showed a Ki of 5.7 nM.
